This note sets out measurements from patent US10597380B2, “Pyridazinone-based broad spectrum anti-influenza inhibitors” (Hoffmann-La Roche Inc., priority 2017, dated 2020).

Structures are written as SMILES.

This experiment concerns Influenza A/WSN/33-Luciferase virus. The experiment can be described thus: microbe, parasite or virus in culture. Type of experiment: cell-based. To be noted: A549, 72 h, luciferase signal three days later, read-out: IC50 antiviral activity (Luciferase reporter assay). (In a reporter assay the amount or activity of a reporter protein is the signal.)

What is called IC50 is the concentration at which inhibition is half-maximal. With `O=c1[nH]cccc1Nc1nn(-c2ccc(OC(F)(F)F)cc2)c(=O)c2ccccc12` [Example 2, 4-[(2-oxo-1H-pyridin-3-yl)amino]-2-[4-(trifluoromethoxy)phenyl]phthalazin-1-one], the IC50 stood at 54 nM. Turning to `O=c1c(Nc2nn(-c3ccc(OC(F)(F)F)cc3)c(=O)c3c2CCC3)cccn1CCNC1COC1` [Example 168, 1-[[1-[2-(Oxetan-3-ylamino)ethyl]-2-oxo-3-pyridyl]amino]-3-[4-(trifluoromethoxy)phenyl]-6,7-dihydro-5H-cyclopenta[d]pyridazin-4-one], the IC50 amounted to 24 nM. As for `O=C(O)CNCCn1cccc(Nc2nn(-c3ccc(OC(F)(F)F)cc3)c(=O)c3c2CCC3)c1=O` [Example 129, 2-[2-[2-Oxo-3-[[4-oxo-3-[4-(trifluoromethoxy)phenyl]-6,7-dihydro-5H-cyclopenta[d]pyridazin-1-yl]amino]-1-pyridyl]ethylamino]acetic acid], the figure is 79 nM; as for `O=c1c(Nc2nn(-c3ccc(OC(F)(F)F)cc3)c(=O)c3c2CCC3)cccn1C[C@@H]1CNCCO1` [Example 135, 1-[[1-[[(2S)-Morpholin-2-yl]methyl]-2-oxo-3-pyridyl]amino]-3-[4-(trifluoromethoxy)phenyl]-6,7-dihydro-5H-cyclopenta[d]pyridazin-4-one], 85 nM; as for `COC1CCN(CCn2cccc(Nc3nn(-c4ccc(OC(F)(F)F)cc4)c(=O)c4c3CCC4)c2=O)C1` (stereo not drawn) [Example 42, 1-[[1-[2-(3-methoxypyrrolidin-1-yl)ethyl]-2-oxo-3-pyridyl]amino]-3-[4-(trifluoromethoxy)phenyl]-6,7-dihydro-5H-cyclopenta[d]pyridazin-4-one], 40 nM. For `Cn1cc(C(F)(F)F)cc(Nc2nn(-c3ccc(OC(F)(F)F)cc3)c(=O)c3c2CCC3)c1=O` [Example 34, 1-[[1-methyl-2-oxo-5-(trifluoromethyl)-3-pyridyl]amino]-3-[4-(trifluoromethoxy)phenyl]-6,7-dihydro-5H-cyclopenta[d]pyridazin-4-one], the half-maximal inhibitory concentration (IC50) was found to be 195 nM. With `O=c1c(Nc2nn(-c3ccc(OC(F)(F)F)cc3)c(=O)c3ccccc23)cccn1CCO` [Example 163, 4-[[1-(2-Hydroxyethyl)-2-oxo-3-pyridyl]amino]-2-[4-(trifluoromethoxy)phenyl]phthalazin-1-one], the concentration for half-maximal inhibition (IC50) was 62 nM. As to `COC(=O)CCCn1cccc(Nc2nn(-c3ccc(OC(F)(F)F)cc3)c(=O)c3c2CCC3)c1=O` [Example 38, methyl 4-[2-oxo-3-[[4-oxo-3-[4-(trifluoromethoxy)phenyl]-6,7-dihydro-5H-cyclopenta[d]pyridazin-1-yl]amino]-1-pyridyl]butanoate], the IC50 came out at 23 nM. For `Cc1ncc(Nc2nn(-c3ccc(OC(F)(F)F)cc3)c(=O)c3ccccc23)c(=O)[nH]1` [Example 65, 4-[(2-methyl-6-oxo-1H-pyrimidin-5-yl)amino]-2-[4-(trifluoromethoxy)phenyl]phthalazin-1-one], the 50% inhibitory concentration (IC50) worked out at 405 nM.

Consider `CCc1ccc2c(=O)n(-c3ccc(OC(F)(F)F)cc3)nc(Nc3cccn(C)c3=O)c2c1` [Example 81, 6-ethyl-4-[(1-methyl-2-oxo-3-pyridyl)amino]-2-[4-(trifluoromethoxy)phenyl]phthalazin-1-one], for which the IC50 came out at 465 nM. As to `CC(=O)N1CCc2c(Nc3cccn(C)c3=O)nn(-c3ccc(OC(F)(F)F)cc3)c(=O)c2C1` [Example 148, 6-Acetyl-1-[(1-methyl-2-oxo-3-pyridyl)amino]-3-[4-(trifluoromethoxy)phenyl]-7,8-dihydro-5H-pyrido[3,4-d]pyridazin-4-one], the IC50 is 19 nM. On to `CNC(=O)CCCn1cccc(Nc2nn(-c3ccc(OC(F)(F)F)cc3)c(=O)c3c2CCC3)c1=O` [Example 105, N-methyl-4-[2-oxo-3-[[4-oxo-3-[4-(trifluoromethoxy)phenyl]-6,7-dihydro-5H-cyclopenta[d]pyridazin-1-yl]amino]-1-pyridyl]butanamide], for which the concentration for half-maximal inhibition (IC50) worked out at 15 nM. Turning to `CNC(=O)COCCn1cccc(Nc2nn(-c3ccc(OC(F)(F)F)cc3)c(=O)c3ccccc23)c1=O` [Example 102, N-methyl-2-[2-[2-oxo-3-[[4-oxo-3-[4-(trifluoromethoxy)phenyl]phthalazin-1-yl]amino]-1-pyridyl]ethoxy]acetamide], the concentration for half-maximal inhibition (IC50) was 37 nM. `Cn1cccc(Nc2nn(-c3ccc(OC(F)(F)F)cc3)c(=O)c3cc(C(N)=O)ccc23)c1=O` [Example 139, 1-[(1-Methyl-2-oxo-3-pyridyl)amino]-4-oxo-3-[4-(trifluoromethoxy)phenyl]phthalazine-6-carboxamide]: the half-inhibitory concentration (IC50) is 62 nM. Consider `Cn1cncc(Nc2nn(-c3ccc(OC(F)(F)F)cc3)c(=O)c3c2CCC3)c1=O` [Example 30, 1-[(1-methyl-6-oxo-pyrimidin-5-yl)amino]-3-[4-(trifluoromethoxy)phenyl]-6,7-dihydro-5H-cyclopenta[d]pyridazin-4-one], for which the half-inhibitory concentration (IC50) is 37 nM. As for `CN(C)CCNC(=O)Cn1cccc(Nc2nn(-c3ccc(OC(F)(F)F)cc3)c(=O)c3ccccc23)c1=O` [Example 93, N-[2-(dimethylamino)ethyl]-2-[2-oxo-3-[[4-oxo-3-[4-(trifluoromethoxy)phenyl]phthalazin-1-yl]amino]-1-pyridyl]acetamide], the figure is 166 nM; as for `Cn1cccc(Nc2nn(-c3ccc(OC(F)(F)F)cc3)c(=O)c3c2CCCC3)c1=O` [Example 21, 4-[(1-methyl-2-oxo-3-pyridyl)amino]-2-[4-(trifluoromethoxy)phenyl]-5,6,7,8-tetrahydrophthalazin-1-one], 5 nM; as for `CCN(CC)CCn1cncc(Nc2nn(-c3ccc(OC(F)(F)F)cc3)c(=O)c3c2CCC3)c1=O` [Example 51, 1-[[1-[2-(diethylamino)ethyl]-6-oxo-pyrimidin-5-yl]amino]-3-[4-(trifluoromethoxy)phenyl]-6,7-dihydro-5H-cyclopenta[d]pyridazin-4-one], 44 nM.

In the case of `C=Cc1ccc2c(Nc3cccn(C)c3=O)nn(-c3ccc(OC(F)(F)F)cc3)c(=O)c2c1` [Example 84, 4-[(1-methyl-2-oxo-3-pyridyl)amino]-2-[4-(trifluoromethoxy)phenyl]-7-vinyl-phthalazin-1-one], the IC50 worked out at 176 nM. Regarding `O=C(O)C1CCN(CCn2cccc(Nc3nn(-c4ccc(OC(F)(F)F)cc4)c(=O)c4c3CCC4)c2=O)C1` (stereo not drawn) [Example 120, 1-[2-[2-oxo-3-[[4-oxo-3-[4-(trifluoromethoxy)phenyl]-6,7-dihydro-5H-cyclopenta[d]pyridazin-1-yl]amino]-1-pyridyl]ethyl]pyrrolidine-3-carboxylic acid], the half-maximal inhibitory concentration (IC50) turned out to be 1120 nM. Consider `O=c1c(Nc2nn(-c3ccc(OC(F)(F)F)cc3)c(=O)c3ccccc23)cccn1CCN1CCOCC1` [Example 76, 4-[[1-(2-morpholinoethyl)-2-oxo-3-pyridyl]amino]-2-[4-(trifluoromethoxy)phenyl]phthalazin-1-one], for which the IC50 was 34 nM. With `CC(C)(C)OC(=O)NCCn1cccc(Nc2nn(-c3ccc(OC(F)(F)F)cc3)c(=O)c3c2CCC3)c1=O` [Example 45, tert-butyl N-[2-[2-oxo-3-[[4-oxo-3-[4-(trifluoromethoxy)phenyl]-6,7-dihydro-5H-cyclopenta[d]pyridazin-1-yl]amino]-1-pyridyl]ethyl]carbamate], the half-inhibitory concentration (IC50) came out at 286 nM.

Regarding `Cn1cccc(Nc2nn(-c3ccc(OC(F)(F)F)cc3)c(=O)c3c2CCN(S(C)(=O)=O)C3)c1=O` [Example 156, 1-[(1-Methyl-2-oxo-3-pyridyl)amino]-6-methylsulfonyl-3-[4-(trifluoromethoxy)phenyl]-7,8-dihydro-5H-pyrido[3,4-d]pyridazin-4-one], the IC50 stood at 266 nM.

Take `CN(C)CCn1cccc(Nc2nn(-c3ccc(OC(F)(F)F)cc3)c(=O)c3ccccc23)c1=O` [Example 70, 4-[[1-[2-(dimethylamino)ethyl]-2-oxo-3-pyridyl]amino]-2-[4-(trifluoromethoxy)phenyl]phthalazin-1-one]: the IC50 amounted to 19 nM. In the case of `COc1ccc(-n2nc(Nc3cc(F)cn(C)c3=O)c3c(c2=O)CCC3)cn1` [Example 57, 1-[(5-fluoro-1-methyl-2-oxo-3-pyridyl)amino]-3-(6-methoxy-3-pyridyl)-6,7-dihydro-5H-cyclopenta[d]pyridazin-4-one], the IC50 was found to be 352 nM. Consider `Cn1cccc(Nc2nn(-c3ccc(OC(F)(F)F)cc3)c(=O)c3c2CCN(CC(C)(C)O)C3)c1=O` [Example 146, 6-(2-Hydroxy-2-methyl-propyl)-1-[(1-methyl-2-oxo-3-pyridyl)amino]-3-[4-(trifluoromethoxy)phenyl]-7,8-dihydro-5H-pyrido[3,4-d]pyridazin-4-one], for which the IC50 was 167 nM. Turning to `CNC(=O)Cn1cccc(Nc2nn(-c3ccc(OC(F)(F)F)cc3)c(=O)c3ccccc23)c1=O` [Example 91, N-methyl-2-[2-oxo-3-[[4-oxo-3-[4-(trifluoromethoxy)phenyl]phthalazin-1-yl]amino]-1-pyridyl]acetamide], the half-maximal inhibitory concentration (IC50) came out at 41 nM.
